Measurements: doi:10.1101/2020.07.01.182642v1 (biorxiv, 2020)

Key:
Conditions in all cases: binder
TGFBR1 = TGFBR1 (Homo sapiens, UniProt P36897)
PDPK1 = PDPK1 (Homo sapiens, UniProt O15530)
STK32A = STK32A (Homo sapiens, UniProt Q8WU08)
STK17A = STK17A (Homo sapiens, UniProt Q9UEE5)
MAPK13 = MAPK13 (Homo sapiens, UniProt O15264)
CDC42BPA = CDC42BPA (Homo sapiens, UniProt Q5VT25)
NEK1 = NEK1 (Homo sapiens, UniProt Q96PY6)
CDK17 = CDK17 (Homo sapiens, UniProt Q00537)
STK24 = STK24 (Homo sapiens, UniProt Q9Y6E0)
GSG2 = GSG2 (Homo sapiens, UniProt Q8TF76)
CDKL2 = CDKL2 (Homo sapiens, UniProt Q92772)
ACVR2B = ACVR2B (Homo sapiens, UniProt Q13705)
CDKL5 = CDKL5 (Homo sapiens, UniProt O76039)
ACVR1B = ACVR1B (Homo sapiens, UniProt P36896)
MYLK2 = MYLK2 (Homo sapiens, UniProt Q9H1R3)
CSNK1G3 = CSNK1G3 (Homo sapiens, UniProt Q9Y6M4)
PAK6 = PAK6 (Homo sapiens, UniProt Q9NQU5)
STK38 = STK38 (Homo sapiens, UniProt Q15208)
CAMK2B = CAMK2B (Homo sapiens, UniProt Q13554)
AKT3 = AKT3 (Homo sapiens, UniProt Q9Y243)
MERTK = MERTK (Homo sapiens, UniProt Q12866)
PRKD3 = PRKD3 (Homo sapiens, UniProt O94806)
CDC42BPG = CDC42BPG (Homo sapiens, UniProt Q6DT37)
CAMKK2 = CAMKK2 (Homo sapiens, UniProt Q96RR4)
PKN2 = PKN2 (Homo sapiens, UniProt Q16513)
RPS6KA3 = RPS6KA3 (Homo sapiens, UniProt P51812)
GRK1 = GRK1 (Homo sapiens, UniProt Q15835)
TYRO3 = TYRO3 (Homo sapiens, UniProt Q06418)
STK25 = STK25 (Homo sapiens, UniProt O00506)
MAPK3 = MAPK3 (Homo sapiens, UniProt P27361)
CDK6 = CDK6 (Homo sapiens, UniProt Q00534)

CAMKK2, sequence (Q96RR4 whole entry): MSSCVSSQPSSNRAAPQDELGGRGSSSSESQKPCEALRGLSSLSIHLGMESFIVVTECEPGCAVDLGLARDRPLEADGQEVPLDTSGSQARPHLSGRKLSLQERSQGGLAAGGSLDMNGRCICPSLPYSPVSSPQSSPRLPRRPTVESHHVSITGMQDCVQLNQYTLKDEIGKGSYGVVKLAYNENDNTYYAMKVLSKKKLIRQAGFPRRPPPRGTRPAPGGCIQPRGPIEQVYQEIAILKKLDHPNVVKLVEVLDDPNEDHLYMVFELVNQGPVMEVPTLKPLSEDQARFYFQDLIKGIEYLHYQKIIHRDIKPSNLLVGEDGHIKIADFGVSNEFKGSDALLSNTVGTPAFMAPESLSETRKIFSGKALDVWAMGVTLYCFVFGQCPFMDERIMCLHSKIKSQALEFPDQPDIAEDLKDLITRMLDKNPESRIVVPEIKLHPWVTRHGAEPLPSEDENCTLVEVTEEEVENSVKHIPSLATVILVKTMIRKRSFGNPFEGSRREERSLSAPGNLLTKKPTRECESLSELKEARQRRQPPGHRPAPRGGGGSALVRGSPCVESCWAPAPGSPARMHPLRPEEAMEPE
PAK6, sequence (Q9NQU5 whole entry): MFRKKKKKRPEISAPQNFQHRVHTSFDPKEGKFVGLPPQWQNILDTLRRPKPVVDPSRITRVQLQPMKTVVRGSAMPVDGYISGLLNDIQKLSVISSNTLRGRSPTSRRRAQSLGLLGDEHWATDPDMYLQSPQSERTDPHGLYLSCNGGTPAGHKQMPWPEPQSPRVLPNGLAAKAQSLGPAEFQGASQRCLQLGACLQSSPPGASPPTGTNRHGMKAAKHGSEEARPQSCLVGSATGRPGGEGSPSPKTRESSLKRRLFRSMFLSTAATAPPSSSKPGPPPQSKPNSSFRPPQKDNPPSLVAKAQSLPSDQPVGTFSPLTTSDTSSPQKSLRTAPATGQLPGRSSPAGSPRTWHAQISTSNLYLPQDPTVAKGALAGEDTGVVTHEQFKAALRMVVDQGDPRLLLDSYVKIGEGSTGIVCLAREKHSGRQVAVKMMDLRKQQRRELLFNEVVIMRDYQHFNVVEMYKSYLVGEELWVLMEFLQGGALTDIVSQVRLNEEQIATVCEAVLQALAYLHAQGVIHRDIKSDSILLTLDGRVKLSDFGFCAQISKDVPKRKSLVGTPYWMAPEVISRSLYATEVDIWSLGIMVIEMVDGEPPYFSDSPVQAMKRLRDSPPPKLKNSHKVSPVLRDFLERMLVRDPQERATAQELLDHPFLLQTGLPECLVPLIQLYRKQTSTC
STK17A, sequence (Q9UEE5 whole entry): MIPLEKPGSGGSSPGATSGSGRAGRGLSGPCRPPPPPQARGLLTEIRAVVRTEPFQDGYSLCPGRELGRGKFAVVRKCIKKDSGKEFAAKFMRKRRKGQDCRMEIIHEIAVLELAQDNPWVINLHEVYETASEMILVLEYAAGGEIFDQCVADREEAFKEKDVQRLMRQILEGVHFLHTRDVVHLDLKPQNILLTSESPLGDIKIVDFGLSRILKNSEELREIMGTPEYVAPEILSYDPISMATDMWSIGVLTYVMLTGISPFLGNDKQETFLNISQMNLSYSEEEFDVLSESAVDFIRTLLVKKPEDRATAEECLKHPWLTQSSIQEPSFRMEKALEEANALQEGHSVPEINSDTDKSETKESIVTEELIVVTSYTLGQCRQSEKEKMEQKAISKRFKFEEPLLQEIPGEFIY
GSG2, sequence (Q8TF76 whole entry): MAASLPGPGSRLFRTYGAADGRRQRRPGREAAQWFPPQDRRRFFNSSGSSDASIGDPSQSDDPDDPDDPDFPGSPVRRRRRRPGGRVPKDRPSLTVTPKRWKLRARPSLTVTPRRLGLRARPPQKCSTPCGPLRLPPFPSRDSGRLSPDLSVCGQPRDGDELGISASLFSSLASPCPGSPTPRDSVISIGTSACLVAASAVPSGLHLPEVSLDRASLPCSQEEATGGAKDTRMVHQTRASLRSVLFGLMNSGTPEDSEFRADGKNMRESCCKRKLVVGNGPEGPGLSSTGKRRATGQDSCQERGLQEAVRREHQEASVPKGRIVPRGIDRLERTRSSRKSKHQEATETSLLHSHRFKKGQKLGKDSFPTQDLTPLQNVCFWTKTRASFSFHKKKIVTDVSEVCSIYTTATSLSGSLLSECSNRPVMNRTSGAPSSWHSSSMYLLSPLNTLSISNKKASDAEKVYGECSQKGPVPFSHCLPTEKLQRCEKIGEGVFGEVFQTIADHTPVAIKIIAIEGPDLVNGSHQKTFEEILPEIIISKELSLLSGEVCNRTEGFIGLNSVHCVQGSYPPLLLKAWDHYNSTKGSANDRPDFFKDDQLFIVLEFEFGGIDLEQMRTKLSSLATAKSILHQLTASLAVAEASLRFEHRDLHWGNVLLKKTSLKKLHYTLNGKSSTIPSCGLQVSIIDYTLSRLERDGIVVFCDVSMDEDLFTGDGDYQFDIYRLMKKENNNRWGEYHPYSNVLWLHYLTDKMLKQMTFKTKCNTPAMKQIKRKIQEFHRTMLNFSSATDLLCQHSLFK
CSNK1G3, sequence (Q9Y6M4 whole entry): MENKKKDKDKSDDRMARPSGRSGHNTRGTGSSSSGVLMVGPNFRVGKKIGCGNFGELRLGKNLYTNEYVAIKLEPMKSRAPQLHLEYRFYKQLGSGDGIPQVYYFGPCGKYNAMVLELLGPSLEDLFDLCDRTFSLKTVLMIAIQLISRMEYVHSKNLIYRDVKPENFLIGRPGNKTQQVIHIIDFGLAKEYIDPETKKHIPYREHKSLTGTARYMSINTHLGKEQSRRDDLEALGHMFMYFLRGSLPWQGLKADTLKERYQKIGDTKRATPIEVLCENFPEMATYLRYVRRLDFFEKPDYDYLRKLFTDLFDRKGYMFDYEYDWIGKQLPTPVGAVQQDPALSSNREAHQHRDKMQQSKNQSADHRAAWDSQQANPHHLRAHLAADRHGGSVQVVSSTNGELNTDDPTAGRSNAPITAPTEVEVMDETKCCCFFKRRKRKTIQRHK
CDC42BPG, sequence (Q6DT37 whole entry): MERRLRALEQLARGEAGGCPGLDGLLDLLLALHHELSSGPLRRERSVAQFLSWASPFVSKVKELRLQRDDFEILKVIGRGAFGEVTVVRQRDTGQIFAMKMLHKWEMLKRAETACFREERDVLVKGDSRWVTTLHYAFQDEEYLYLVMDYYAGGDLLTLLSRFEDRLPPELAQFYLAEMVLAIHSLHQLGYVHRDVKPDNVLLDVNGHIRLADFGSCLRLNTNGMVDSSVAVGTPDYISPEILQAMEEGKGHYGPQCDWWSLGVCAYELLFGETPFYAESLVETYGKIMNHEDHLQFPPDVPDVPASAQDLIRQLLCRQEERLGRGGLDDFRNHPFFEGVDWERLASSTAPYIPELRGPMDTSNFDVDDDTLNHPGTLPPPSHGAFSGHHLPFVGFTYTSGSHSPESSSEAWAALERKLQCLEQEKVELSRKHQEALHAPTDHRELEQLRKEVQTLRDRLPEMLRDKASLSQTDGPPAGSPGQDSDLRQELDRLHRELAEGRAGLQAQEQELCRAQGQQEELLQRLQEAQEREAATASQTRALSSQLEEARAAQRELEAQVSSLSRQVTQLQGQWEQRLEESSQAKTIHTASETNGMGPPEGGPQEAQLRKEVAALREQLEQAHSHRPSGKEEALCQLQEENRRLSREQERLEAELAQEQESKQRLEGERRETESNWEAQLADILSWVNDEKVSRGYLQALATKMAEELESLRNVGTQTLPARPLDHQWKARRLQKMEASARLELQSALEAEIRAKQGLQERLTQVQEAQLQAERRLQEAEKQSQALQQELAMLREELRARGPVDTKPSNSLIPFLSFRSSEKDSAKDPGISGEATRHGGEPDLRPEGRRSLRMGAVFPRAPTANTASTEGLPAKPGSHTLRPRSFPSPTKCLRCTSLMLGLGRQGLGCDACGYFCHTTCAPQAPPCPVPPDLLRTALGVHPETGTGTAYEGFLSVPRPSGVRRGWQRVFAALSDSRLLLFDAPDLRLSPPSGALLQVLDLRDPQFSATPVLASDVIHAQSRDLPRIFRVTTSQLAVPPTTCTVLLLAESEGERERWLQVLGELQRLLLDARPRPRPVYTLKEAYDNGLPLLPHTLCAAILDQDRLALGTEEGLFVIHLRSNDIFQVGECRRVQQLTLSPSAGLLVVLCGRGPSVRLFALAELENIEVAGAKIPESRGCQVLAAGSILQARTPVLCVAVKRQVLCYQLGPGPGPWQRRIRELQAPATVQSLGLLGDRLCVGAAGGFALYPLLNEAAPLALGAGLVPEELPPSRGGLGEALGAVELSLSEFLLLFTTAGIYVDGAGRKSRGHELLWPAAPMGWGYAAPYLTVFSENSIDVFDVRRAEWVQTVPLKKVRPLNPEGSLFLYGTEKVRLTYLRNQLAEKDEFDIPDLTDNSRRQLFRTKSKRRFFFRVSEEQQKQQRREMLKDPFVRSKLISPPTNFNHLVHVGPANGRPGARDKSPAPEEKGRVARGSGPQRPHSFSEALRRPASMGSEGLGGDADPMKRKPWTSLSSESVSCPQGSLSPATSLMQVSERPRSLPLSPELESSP
STK32A, sequence (Q8WU08 whole entry): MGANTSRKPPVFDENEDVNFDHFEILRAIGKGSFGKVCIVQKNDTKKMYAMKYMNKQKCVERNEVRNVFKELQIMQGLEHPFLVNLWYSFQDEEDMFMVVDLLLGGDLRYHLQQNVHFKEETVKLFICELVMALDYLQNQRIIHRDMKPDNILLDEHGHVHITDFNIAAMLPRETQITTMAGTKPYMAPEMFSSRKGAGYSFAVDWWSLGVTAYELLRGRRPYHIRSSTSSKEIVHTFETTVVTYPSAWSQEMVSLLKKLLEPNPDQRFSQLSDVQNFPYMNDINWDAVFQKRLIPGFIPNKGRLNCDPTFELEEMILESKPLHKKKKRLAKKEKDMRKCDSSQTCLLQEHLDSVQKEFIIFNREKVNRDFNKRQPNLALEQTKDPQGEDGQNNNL

Q: How did the “ΔTm inhibitor 4” value (TGFBR1) turn out when `Nc1nccc(-c2ccc3noc(-c4ccc(Cl)cc4)c3c2)n1` [compound 4, K00972] was run?
A: The value was 0.9 °C.

Q: What about the “ΔTm inhibitor 4” value (PDPK1) of the same molecule?
A: Its value is 0.3 °C.

Q: What about the “ΔTm inhibitor 4” value (STK32A) of the same molecule?
A: The value was 0.2 °C.

Q: And the “ΔTm inhibitor 4” value (STK17A)?
A: The value was 2.2 °C.

Q: What about the “ΔTm inhibitor 4” value (MAPK13) of the same molecule?
A: The value was 0.5 °C.

Q: What about the “ΔTm inhibitor 4” value (CDC42BPA) of the same molecule?
A: Its value is 0.6 °C.

Q: And the “ΔTm inhibitor 4” value (NEK1)?
A: Its value is 0.6 °C.

Q: And the “ΔTm inhibitor 4” value (CDK17)?
A: The value was 0.4 °C.

Q: And the “ΔTm inhibitor 4” value (STK24)?
A: Its value is 0.8 °C.

Q: And the “ΔTm inhibitor 4” value (GSG2)?
A: The value was 4.0 °C.

Q: And the “ΔTm inhibitor 4” value (CDKL2)?
A: Its value is 0.1 °C.

Q: What about the “ΔTm inhibitor 4” value (ACVR2B) of the same molecule?
A: Its value is 0.0 °C.

Q: What about the “ΔTm inhibitor 4” value (CDKL5) of the same molecule?
A: Its value is 0.3 °C.

Q: And the “ΔTm inhibitor 4” value (ACVR1B)?
A: Its value is 1.1 °C.

Q: And the “ΔTm inhibitor 4” value (MYLK2)?
A: Its value is 0.0 °C.

Q: And the “ΔTm inhibitor 4” value (CSNK1G3)?
A: The value was 1.2 °C.

Q: Which “ΔTm inhibitor 2” value (PAK6) does the source give for `CCN1/C(=C/C(C)=O)Sc2ccc(OC)cc21` [compound 2, TG003] here?
A: The value was -0.9 °C.

Q: And the “ΔTm inhibitor 2” value (STK38)?
A: Its value is 0.4 °C.

Q: And the “ΔTm inhibitor 2” value (PDPK1)?
A: Its value is 0.2 °C.

Q: And the “ΔTm inhibitor 2” value (CAMK2B)?
A: The value was 0.3 °C.

Q: And the “ΔTm inhibitor 2” value (AKT3)?
A: Its value is 0.0 °C.

Q: What about the “ΔTm inhibitor 2” value (MERTK) of the same molecule?
A: The value was 0.0 °C.

Q: And the “ΔTm inhibitor 2” value (PRKD3)?
A: Its value is 2.7 °C.

Q: What about the “ΔTm inhibitor 2” value (STK32A) of the same molecule?
A: The value was -0.2 °C.

Q: What about the “ΔTm inhibitor 2” value (CDC42BPG) of the same molecule?
A: Its value is -1.3 °C.

Q: And the “ΔTm inhibitor 2” value (MAPK13)?
A: Its value is 0.4 °C.

Q: What about the “ΔTm inhibitor 2” value (CAMKK2) of the same molecule?
A: The value was 0.4 °C.

Q: What about the “ΔTm inhibitor 2” value (CDC42BPA) of the same molecule?
A: The value was -0.4 °C.

Q: And the “ΔTm inhibitor 2” value (NEK1)?
A: Its value is -0.3 °C.

Q: What about the “ΔTm inhibitor 2” value (PKN2) of the same molecule?
A: The value was -0.5 °C.

Q: What about the “ΔTm inhibitor 2” value (CDK17) of the same molecule?
A: The value was 0.0 °C.

Q: And the “ΔTm inhibitor 2” value (STK24)?
A: Its value is -0.2 °C.

Q: And the “ΔTm inhibitor 2” value (RPS6KA3)?
A: The value was 0.7 °C.

Q: And the “ΔTm inhibitor 2” value (CDKL2)?
A: The value was -0.5 °C.

Q: And the “ΔTm inhibitor 2” value (CDKL5)?
A: Its value is 1.1 °C.

Q: What about the “ΔTm inhibitor 2” value (MYLK2) of the same molecule?
A: The value was -1.4 °C.

Q: And the “ΔTm inhibitor 2” value (GRK1)?
A: Its value is 0.4 °C.

Q: And the “ΔTm inhibitor 2” value (TYRO3)?
A: The value was 0.1 °C.

Q: What about the “ΔTm inhibitor 2” value (STK25) of the same molecule?
A: The value was 0.7 °C.

Q: And the “ΔTm inhibitor 2” value (MAPK3)?
A: Its value is -0.1 °C.

Q: And the “ΔTm inhibitor 2” value (CDK6)?
A: Its value is 0.4 °C.

Q: Which results are given for `CC(=O)c1cccc(-c2cnc3ccc(NCC4CC4)nn23)c1` [compound 1, K00135]?
A: ΔTm inhibitor 1 (PAK6): 1.1 °C; ΔTm inhibitor 1 (TGFBR1): 9.5 °C; ΔTm inhibitor 1 (STK38): 1.1 °C; ΔTm inhibitor 1 (CAMK2B): 0.2 °C; ΔTm inhibitor 1 (AKT3): 0.4 °C; ΔTm inhibitor 1 (MERTK): 1.3 °C; ΔTm inhibitor 1 (PRKD3): 0.8 °C; ΔTm inhibitor 1 (STK17A): 3.4 °C; ΔTm inhibitor 1 (CDC42BPG): 0.6 °C; ΔTm inhibitor 1 (CAMKK2): 2.5 °C; ΔTm inhibitor 1 (PKN2): 3.7 °C; ΔTm inhibitor 1 (GSG2): 6.5 °C; ΔTm inhibitor 1 (RPS6KA3): 3.4 °C; ΔTm inhibitor 1 (ACVR2B): 7.4 °C; ΔTm inhibitor 1 (ACVR1B): 9.1 °C; ΔTm inhibitor 1 (GRK1): 1.1 °C; ΔTm inhibitor 1 (CSNK1G3): 0.3 °C; ΔTm inhibitor 1 (TYRO3): 0.4 °C; ΔTm inhibitor 1 (STK25): 0.5 °C; ΔTm inhibitor 1 (MAPK3): 0.5 °C; ΔTm inhibitor 1 (CDK6): 0.1 °C
